Experimental data from patent US20170143608A1, “SKIN COLOR-IMPROVING AGENT AND COMPOSITION FOR IMPROVING SKIN COLOR” (priority 2014, published 2017).

Key:
[1] = test system: UDP-glucuronosyltransferase gene (UGT1A1 gene); experiment: Expression promoting effect on UDP-glucuronosyltransferase gene in NB1-RGB cells (quantitative real-time PCR); type: cell-based, human; settings: for Relative gene expression level UGT1A1: final concentration 0.2 μm, 72 hours, standardized to GAPDH, 50% ethanol control = 1.00; for expression promoting effect on UGT1A1 gene compared to dl-α-tocopherol acetate group (in words): compared to the group in which dl-α-tocopherol acetate was added
Method: (§1) Specifically, the NB1-RGB cells were prepared at a seeding density of 10,000 cells/cm^2, and were cultured for 24 hours in a DMEM medium containing 10% fetal bovine serum. […] In addition, one obtained by adding only 50% ethanol to the medium of cells was used as the control.
(§2) Next, all RNA was extracted from each cell, cDNA was synthesized, quantitative real-time PCR was performed using this cDNA as a template, and the expression levels of the HO-1 gene and UGT1A1 gene were quantified.

[2] = test system: heme oxygenase gene (HO-1 gene); experiment: Expression promoting effect on heme oxygenase gene in NB1-RGB cells (quantitative real-time PCR); settings: for Relative gene expression level HO-1: final concentration 0.2 μm, 72 hours, standardized to GAPDH, 50% ethanol control = 1.00; for expression promoting effect on HO-1 gene compared to dl-α-tocopherol acetate group (in words): compared to the group in which dl-α-tocopherol acetate was added
Method: as §1, §2

`CC(=O)Oc1c(C)c(C)c2c(c1C)CCC(C)(CCCC(C)CCCC(C)CCCC(C)C)O2` (racemic) [dl-α-tocopherol acetate, reference compound] was tested, and the “Relative gene expression level UGT1A1” value [1] was 34.84 and the “Relative gene expression level HO-1” value [2] was 0.97.

`Cc1c(C)c2c(c(C)c1OP(=O)([O-])[O-])CCC(C)(CCCC(C)CCCC(C)CCCC(C)C)O2.[Na+].[Na+]` (stereo not drawn) [sodium α-tocopheryl phosphate] was tested, and the “expression promoting effect on UGT1A1 gene compared to the control (in words)” value [1] was “expression promoting effect”, the “expression promoting effect on UGT1A1 gene compared to dl-α-tocopherol acetate group (in words)” value [1] was “higher expression promoting effect” and the “Relative gene expression level UGT1A1” value [1] was 59.11. The “expression promoting effect on HO-1 gene compared to the control (in words)” value [2] was “expression promoting effect”, the “expression promoting effect on HO-1 gene compared to dl-α-tocopherol acetate group (in words)” value [2] was “higher expression promoting effect” and the “Relative gene expression level HO-1” value [2] was 1.40.

For `Cc1c(OP(=O)([O-])[O-])cc2c(c1C)O[C@](C)(CCC[C@H](C)CCC[C@H](C)CCCC(C)C)CC2.[Na+].[Na+]` [sodium γ-tocopheryl phosphate], the “expression promoting effect on UGT1A1 gene compared to the control (in words)” value [1] was “expression promoting effect”, the “expression promoting effect on UGT1A1 gene compared to dl-α-tocopherol acetate group (in words)” value [1] was “higher expression promoting effect” and the “Relative gene expression level UGT1A1” value [1] was 42.98. For the same compound, the “expression promoting effect on HO-1 gene compared to the control (in words)” value [2] was “expression promoting effect”, the “expression promoting effect on HO-1 gene compared to dl-α-tocopherol acetate group (in words)” value [2] was “higher expression promoting effect” and the “Relative gene expression level HO-1” value [2] was 1.21.
